According to BindingDB's records for doi:10.1021/acs.biochem.6b00943 (University of Maryland, 2017):
Several values for one entry are separate records, joined by “and”; a condition that tells them apart may be missing. Equal values may be shown once.

Biological target: Reverse transcriptase protein (Human immunodeficiency virus 1, UniProt Q9WJQ1)
Assay: HIV-1 RT Inhibitory Assay
Details: 25 °C
Protocol: The final pH of the reactions was 7.7. After extension for 3 min, the reactions were stopped by adding 12.5 μL of 2× gel loading buffer and the samples were resolved in a 16% denaturing polyacrylamide−7 M urea gel.

How did the IC50 turn out when Cc1ccnc2c1NC(=O)c1cccnc1N2C1CC1 [BI-RG-587] was run?
The IC50 was 16 µM and 4.3 µM.
